pIC50: −log10 of the molar value. Positions of bridges follow the written chain, without caps; N, C: chain ends. Non-standard residues stand in square brackets, D forms with d. Residues, ends and D or L forms follow the SMILES beside them. tBuAla = CC(C)(C)C[C@H](N)C(=O)O; Cha = N[C@@H](CC1CCCCC1)C(=O)O; Chg = N[C@H](C(=O)O)C1CCCCC1; Ac6c = NC1(C(=O)O)CCCCC1; Orn = NCCC[C@H](N)C(=O)O; Abu = CC[C@H](N)C(=O)O; Aoc = NCCCCCCCC(=O)O; Ahp = NCCCCCCC(=O)O
Target: T1, recombinant human vWF-A1 domain (Homo sapiens, UniProt P07359)
T1 construct: whole blood drawn from voluntary donors; made in house; host or cells: E. coli (vWF-A1); washed platelets from human donor blood (GPIb, endogenous)
Experiment: Static human platelet adhesion to recombinant human vWF-A1 domain
Type: cell-based
Conditions: washed calcein AM labeled human platelets, static conditions, 1.5 h adhesion; read-out: Activity (IC50 for inhibition of the binding of platelets to vWF A1 domain)
Procedure: The activity of compounds of the formula I can be shown by procedures known in the art, for example by determining their inhibition of the binding of platelets to vWF A1 domain in an appropriate assay. To this end, assay plates can be coated with vWF-A1 domain. […] Then fluorescence-labeled thrombocytes are added and incubated for 90 minutes. In a complex washing procedure all non-bound thrombocytes are removed and the plates are measured, for example in a laser-based reader Acumen Explorer or a bulk reader like Spectramax. […] To assess the effect of compounds on the interaction of the GPIb complex on platelets with vWF, an assay system was used measuring binding of human platelets to recombinant human vWF-A1 domain under static conditions in the presence and absence of the compounds. […] Platelet rich plasma was carefully removed, transferred to a fresh container and spun down for 15 min at 120 g. Platelet rich plasma was carefully transferred again to fresh containers, PGE1 (0.5 μg/ml, Sigma) was added and the suspension was allowed to rest for 5 min. This was followed by another centrifugation step for 15 min at 360 g. The supernatant was discarded and the cell pellets were carefully resuspended in tyrode buffer (NaCl, 137 mM (Sigma S-3014); KCl, 2.7 mM (Sigma P-9541); NaHCO3,12 mM ([…] 31437); NaH2PO4×2H2O, 0.36 mM (Merck 6345); […] After 5 min of resting the suspension was spun down for 15 min at 300 g. The supernatant was discarded and the pellets were carefully resuspended in TBS buffer (Tris-HCl, 50 mM (Fluka 93371); NaCl, 120 mM (Sigma S-3014); KCl, 2.7 mM (Sigma P-9541); CaCl2, 0.05 mM (Sigma C-3306); MgCl2×6 H2O, 2 mM (Sigma M-2670); […] The platelet count was adjusted to 2×10^5 cells/μl, and the suspensions from individual donors were pooled at this stage. The platelets were allowed to rest for 30 min at room temperature before calcein AM (2.5 μM per 2×10^5 cells/μl (Molecular Probes C-3099)) was added. This was followed by 15 min incubation in the dark. Cells were diluted to 5×10^4 cells/μl and ReoPro (3 μg/ml (Centocor B. V., Leiden, N L)) was added, followed by a 10 min incubation period in the dark before adding the platelets to the assay plates. 96 well plates (Greiner hb, black, clear bottom, F, 655097) were coated with human recombinant vWF-A1 domain (1.5 μg/well, AA 475-706, expressed in E. coli) in Tris buffer (pH 7.4; Tris-HCl, 25 mM; NaCl, 150 mM) and incubated for 1 h at room temperature. After washing the wells 3× with TBS, blocking buffer (TBS with 5% BSA) was added followed by an incubation for 1 h. The wells were washed again 3× with TBS before 200 μl TBS were added to each well, preventing them from drying out. TBS was flicked out and serial dilutions of the test compound were added. The washed and calcein AM labeled thrombocytes were added to the wells (2.5×10^6 cells/well). Following an adhesion period of 1.5 h in the dark the wells were washed 3× with TBS. Measurement of fluorescence per well was performed in a SpectraMax M5 reader (Molecular Devices). From the raw data % inhibition and IC50 values were calculated.

T1 sequence (P07359 17-652): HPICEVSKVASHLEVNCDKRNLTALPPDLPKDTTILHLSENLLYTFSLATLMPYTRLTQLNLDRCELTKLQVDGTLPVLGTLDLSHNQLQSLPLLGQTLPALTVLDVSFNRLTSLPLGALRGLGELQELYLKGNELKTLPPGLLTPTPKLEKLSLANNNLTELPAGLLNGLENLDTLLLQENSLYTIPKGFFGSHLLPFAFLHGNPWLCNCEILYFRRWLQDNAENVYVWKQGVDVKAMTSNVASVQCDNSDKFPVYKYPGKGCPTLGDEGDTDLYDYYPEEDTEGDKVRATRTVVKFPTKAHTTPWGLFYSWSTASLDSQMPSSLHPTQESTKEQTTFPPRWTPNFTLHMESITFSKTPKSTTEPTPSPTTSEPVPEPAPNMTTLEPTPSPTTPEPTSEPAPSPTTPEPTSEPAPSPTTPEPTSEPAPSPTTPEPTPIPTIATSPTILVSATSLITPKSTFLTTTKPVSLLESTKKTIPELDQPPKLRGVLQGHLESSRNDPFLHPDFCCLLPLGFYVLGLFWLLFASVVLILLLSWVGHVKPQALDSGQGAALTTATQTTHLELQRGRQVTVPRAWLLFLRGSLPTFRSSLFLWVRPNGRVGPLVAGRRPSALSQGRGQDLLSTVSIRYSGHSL
T1 sequence (P13224 26-206 partner): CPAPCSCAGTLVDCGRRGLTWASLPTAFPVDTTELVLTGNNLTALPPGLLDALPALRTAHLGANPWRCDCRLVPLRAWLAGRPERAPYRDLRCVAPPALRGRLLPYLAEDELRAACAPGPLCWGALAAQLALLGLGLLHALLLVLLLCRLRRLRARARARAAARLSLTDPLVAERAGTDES
T1 sequence (P14770 17-177 partner): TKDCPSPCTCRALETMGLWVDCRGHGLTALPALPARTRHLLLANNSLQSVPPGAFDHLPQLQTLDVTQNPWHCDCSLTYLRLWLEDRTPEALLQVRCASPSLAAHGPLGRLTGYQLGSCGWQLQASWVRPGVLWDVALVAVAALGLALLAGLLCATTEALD

Row | Compound | pIC50
1 | CSCC[C@@H]1NC(=O)[C@H](CCCNC(=N)N)NC(=O)[C@H](CCC(=O)O)NC(=O)[C@H]([C@@H](C)O)NC(=O)[C@@H](NC(C)=O)CCCCNC(=O)[C@H](CC(C)C)NC(=O)[C@H](CC(N)=O)NC(=O)[C@H](Cc2c[nH]cn2)NC(=O)[C@H](CC(C)C)NC(=O)[C@H](C)NC1=O [Example 5, Cyclo[Leu-His-Asn-Leu-NH-X4-X3-X2-X1-CO-Thr-Glu-Arg-Met-Ala]] (Ac-KTERMALHNL; lactam 1-C) | 5.00 to 6.00
2 | CSCC[C@@H]1NC(=O)[C@H](CCCNC(=N)N)NC(=O)[C@H](CCC(=O)O)NC(=O)[C@H](Cc2c[nH]cn2)NC(=O)CCCCCCNC(=O)[C@H](CC(C)C)NC(=O)[C@H](CC(N)=O)NC(=O)[C@H](Cc2c[nH]cn2)NC(=O)[C@H](CC(C)C)NC(=O)[C@H](C)NC1=O [Example 21, Cyclo[Leu-His-Asn-Leu-NH—(CH2)6—CO-His-Glu-Arg-Met-Ala]] (cyclo(ALHNL[Ahp]HERM)) | 5.00 to 6.00
3 | CC(C)C[C@@H]1NC(=O)[C@H](C)NC(=O)[C@H](CC2CCCCC2)NC(=O)[C@H](CCCNC(=N)N)NC(=O)[C@H](CCC(=O)O)NC(=O)[C@H]([C@@H](C)O)NC(=O)CCCCCCNC(=O)[C@H](CC(C)C)NC(=O)[C@H](CC(N)=O)NC(=O)[C@H](Cc2c[nH]cn2)NC1=O [Example 17, Cyclo[Leu-His-Asn-Leu-NH—(CH2)6—CO-Thr-Glu-Arg-Cha-Ala]] (cyclo(ALHNL[Ahp]TER[Cha])) | > 6.00
4 | CSCC[C@@H]1NC(=O)[C@H](CCCNC(=N)N)NC(=O)[C@H](CCC(=O)O)NC(=O)[C@H]([C@@H](C)O)NC(=O)CCCCCCCNC(=O)[C@H](CC(C)C)NC(=O)[C@H](CC(N)=O)NC(=O)[C@H](Cc2c[nH]cn2)NC(=O)[C@H](CC(C)C)NC(=O)[C@H](C)NC1=O [Example 6, Cyclo[Leu-His-Asn-Leu-NH—(CH2)7—CO-Thr-Glu-Arg-Met-Ala]] (cyclo(ALHNL[Aoc]TERM)) | > 6.00
5 | CSCC[C@@H]1NC(=O)[C@H](CCCNC(=N)N)NC(=O)[C@H](CCC(=O)O)NC(=O)[C@H]([C@@H](C)O)NC(=O)CCCCCCNC(=O)[C@H](CC(C)C)NC(=O)[C@H](CC(N)=O)NC(=O)[C@H](Cc2c[nH]cn2)NC(=O)[C@H](C2CCCCC2)NC(=O)[C@H](C)NC1=O [Example 20, Cyclo[Chg-His-Asn-Leu-NH—(CH2)6—CO-Thr-Glu-Arg-Met-Ala]] (cyclo(A[Chg]HNL[Ahp]TERM)) | 5.00 to 6.00

Continued, values first:

Row | pIC50 | Compound
6 | > 6.00 | CC[C@@H]1NC(=O)[C@H](CCCNC(=N)N)NC(=O)[C@H](CCC(=O)O)NC(=O)[C@H]([C@@H](C)O)NC(=O)CCCCCCNC(=O)[C@H](CC(C)C)NC(=O)[C@H](CC(N)=O)NC(=O)[C@H](Cc2c[nH]cn2)NC(=O)[C@H](CC(C)C)NC(=O)[C@H](C)NC1=O [Example 42, Cyclo[Leu-His-Asn-Leu-NH—(CH2)6—CO-Thr-Glu-Arg-Abu-Ala]] (cyclo(ALHNL[Ahp]TER[Abu]))
7 | 5.00 to 6.00 | CSCC[C@@H]1NC(=O)[C@H](CCCNC(=N)N)NC(=O)[C@H](CCC(=O)O)NC(=O)[C@H]([C@@H](C)O)NC(=O)CCCCCCNC(=O)[C@H](CC(C)C)NC(=O)[C@H](CC(N)=O)NC(=O)[C@H](Cc2c[nH]cn2)NC(=O)C2(CCCCC2)NC(=O)[C@H](C)NC1=O [Example 37, Cyclo[Ac6-His-Asn-Leu-NH—(CH2)6—CO-Thr-Glu-Arg-Met-Ala]] (cyclo(A[Ac6c]HNL[Ahp]TERM))
8 | 5.00 to 6.00 | CSCC[C@@H]1NC(=O)[C@H](CCCNC(=N)N)NC(=O)[C@H](CCC(=O)O)NC(=O)[C@H]([C@@H](C)O)NC(=O)CCCCCCNC(=O)[C@H](CC(C)C)NC(=O)[C@H](CC(N)=O)NC(=O)[C@H](CCCN)NC(=O)[C@H](CC(C)C)NC(=O)[C@H](C)NC1=O [Example 34, Cyclo[Leu-Orn-Asn-Leu-NH—(CH2)6—CO-Thr-Glu-Arg-Met-Ala]] (cyclo(AL[Orn]NL[Ahp]TERM))
9 | > 6.00 | CSCC[C@@H]1NC(=O)[C@H](CCCNC(=N)N)NC(=O)[C@H](CCC(=O)O)NC(=O)[C@H]([C@@H](C)O)NC(=O)CCCCCCNC(=O)[C@H](CC(C)C)NC(=O)[C@H](CC(N)=O)NC(=O)[C@H](Cc2c[nH]cn2)NC(=O)[C@H](CC(C)(C)C)NC(=O)[C@H](C)NC1=O [Example 36, Cyclo[Npg-His-Asn-Leu-NH—(CH2)6—CO-Thr-Glu-Arg-Met-Ala]] (cyclo(A[tBuAla]HNL[Ahp]TERM))

— patent US9073975B2, “Cyclic peptides, their preparation and their use as inhibitors of the platelet adhesion” (SANOFI, priority 2010, dated 2015)
